Test results as given in paper PMC8883495, “N-terminal phosphorylation regulates the activity of glycogen synthase kinase 3 from Plasmodium falciparum” (Biochemical Journal, 2022).

Tests used:
PfGSK3 [1] = target: T1, PfGSK3 (Plasmodium falciparum, UniProt O77344); test: KinaseGlo Plus luminescence ATP consumption (autophosphorylation); format: biochemical; conditions: 30 µM ATP, no peptide substrate; 20 mM MgCl2; pH 7.5; 30 °C
T1 construct: gene PF3D7_0312400
T1 sequence (O77344 1-440): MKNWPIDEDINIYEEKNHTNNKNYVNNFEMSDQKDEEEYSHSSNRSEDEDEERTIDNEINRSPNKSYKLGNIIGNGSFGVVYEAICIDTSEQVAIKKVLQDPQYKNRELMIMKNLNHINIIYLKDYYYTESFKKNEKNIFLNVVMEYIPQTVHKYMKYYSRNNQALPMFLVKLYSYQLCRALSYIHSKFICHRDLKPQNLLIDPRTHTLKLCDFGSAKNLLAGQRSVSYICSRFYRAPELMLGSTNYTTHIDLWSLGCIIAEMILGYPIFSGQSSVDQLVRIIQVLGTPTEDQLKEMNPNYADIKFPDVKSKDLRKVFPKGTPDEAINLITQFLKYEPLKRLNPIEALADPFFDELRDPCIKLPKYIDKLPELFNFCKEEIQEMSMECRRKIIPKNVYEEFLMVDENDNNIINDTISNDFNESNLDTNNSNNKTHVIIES

PfGSK3 [2] = target: T1, PfGSK3; test: nanoDSF thermal shift; format: binding; conditions: 1 mg/ml protein; 6 mM dATP in Figure 2B; concentration series in supplement; heating 1 °C/min

Compound: Nc1ncnc2c1ncn2[C@@H]1O[C@H](COP(=O)(O)OP(=O)(O)OP(=O)(O)O)[C@@H](O)[C@H]1O [ATP]
- KinaseGlo Plus luminescence ATP consumption (autophosphorylation) (PfGSK3 [1]): The assay showed the consumption of ATP even in the absence of the substrate peptide

Compound: Nc1ncnc2c1ncn2[C@H]1C[C@H](O)[C@@H](COP(=O)(O)OP(=O)(O)OP(=O)(O)O)O1 [dATP]
- Tm (PfGSK3 [2]): dATP stabilizes PfGSK3, suggesting that it binds in the ATP binding pocket
